In the supplement of paper PMC8960247:
± gives the standard error.

What was measured:
621-103 (TSC2-rescued) = assay: relative viability vs DMSO; higher = less cytotoxic; conditions: serum: 10% FBS, 72 h
621-102 (TSC2-deficient) [1] = assay: as above; conditions: serum: 10% FBS, 72 h
621-102 (TSC2-deficient) [2] = assay: relative viability vs DMSO (fraction); higher = less cytotoxic; conditions: serum: 0.1% FBS, 72 h
UMB1949 (TSC2-deficient) = assay: as above; conditions: serum: 0.1% FBS, 72 h;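 note: renal angiomyolipoma cell lines screened in 384-well plates, viability normalized per plate to DMSO-treated cells, each plate carrying 50 nM rapamycin and 1 µM staurosporine controls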

SMILES	relative viability (621-103 (TSC2-rescued); 0.0001 µM) [%]	relative viability (621-103 (TSC2-rescued); 0.001 µM) [%]	relative viability (621-103 (TSC2-rescued); 0.01 µM) [%]	relative viability (621-103 (TSC2-rescued); 0.1 µM) [%]	relative viability (621-103 (TSC2-rescued); 1 µM) [%]	relative viability (621-103 (TSC2-rescued); 10 µM) [%]	relative viability (621-102 (TSC2-deficient) [1]; 0.0001 µM) [%]	relative viability (621-102 (TSC2-deficient) [1]; 0.001 µM) [%]	relative viability (621-102 (TSC2-deficient) [1]; 0.01 µM) [%]	relative viability (621-102 (TSC2-deficient) [1]; 0.1 µM) [%]	relative viability (621-102 (TSC2-deficient) [1]; 1 µM) [%]	relative viability (621-102 (TSC2-deficient) [1]; 10 µM) [%]	relative viability (621-102 (TSC2-deficient) [2]; 0.0128 nM)	relative viability (621-102 (TSC2-deficient) [2]; 0.064 nM)	relative viability (621-102 (TSC2-deficient) [2]; 0.32 nM)	relative viability (621-102 (TSC2-deficient) [2]; 1.6 nM)	relative viability (621-102 (TSC2-deficient) [2]; 8 nM)	relative viability (621-102 (TSC2-deficient) [2]; 40 nM)	relative viability (621-102 (TSC2-deficient) [2]; 200 nM)	relative viability (621-102 (TSC2-deficient) [2]; 1000 nM)	relative viability (621-102 (TSC2-deficient) [2]; 5000 nM)	relative viability (UMB1949 (TSC2-deficient); 0.0128 nM)	relative viability (UMB1949 (TSC2-deficient); 0.064 nM)	relative viability (UMB1949 (TSC2-deficient); 0.32 nM)	relative viability (UMB1949 (TSC2-deficient); 1.6 nM)	relative viability (UMB1949 (TSC2-deficient); 8 nM)	relative viability (UMB1949 (TSC2-deficient); 40 nM)	relative viability (UMB1949 (TSC2-deficient); 200 nM)	relative viability (UMB1949 (TSC2-deficient); 1000 nM)	relative viability (UMB1949 (TSC2-deficient); 5000 nM)
Nc1ncn([C@H]2C[C@H](O)[C@@H](CO)O2)c(=O)n1 [Decitabine]	112 ± 7.6	102.5 ± 0.51	95.65 ± 0.75	95.7 ± 3.1	85.5 ± 6.7	83.8 ± 3.4	104 ± 11	94.3 ± 5.7	98.29 ± 0.53	98.5 ± 1.5	80.2 ± 4.8	93.1 ± 7.1	1	0.906	1	0.888	0.803	0.544	0.312	0.104	0.0392	1.08	1.04	0.99	0.967	1.08	0.973	0.635	0.277	0.155
Nc1nc(Cl)nc2c1ncn2[C@@H]1O[C@H](CO)[C@@H](O)[C@@H]1F [Clofarabine]	107 ± 2.7	101.98 ± 0.033	102.7 ± 0.28	91.6 ± 3.6	47.38 ± 0.098	46.8 ± 2.5	114 ± 4.2	104.4 ± 0.4	103 ± 2.5	96.69 ± 0.62	49.3 ± 1.3	51.8 ± 2.4	1.11	0.982	1.02	0.905	0.929	0.0836	0.0188	0.0106	0.00741	1.06	0.989	1.02	1.05	1.05	0.404	0.00754	0.00286	0.00163
CCN1CCN(Cc2ccc(-c3cc4c(N[C@H](C)c5ccccc5)ncnc4[nH]3)cc2)CC1 [AEE788]	94.8 ± 1.2	107.1 ± 0.38	103.4 ± 0.79	102 ± 3.6	100 ± 3.8	10.7 ± 1	106 ± 2.1	107.3 ± 1	106 ± 4.4	104 ± 1.6	100 ± 3.6	36.7 ± 12	1.06	0.968	1.01	0.786	0.612	0.64	0.156	0.034	0.00903	1.02	0.971	1	1.07	0.964	1.01	0.767	0.305	0.00689
Cn1cncc1[C@@](N)(c1ccc(Cl)cc1)c1ccc2c(c1)c(-c1cccc(Cl)c1)cc(=O)n2C [Tipifarnib]	95.09 ± 0.41	96 ± 1.6	98.8 ± 1.9	81.5 ± 3.5	75.86 ± 0.6	64.3 ± 0.85	99.6 ± 4.2	117 ± 2.7	93.9 ± 2.1	89.4 ± 1.5	76.4 ± 2.5	63.3 ± 1.7	0.693	0.533	0.634	0.552	0.512	0.592	0.436	0.274	0.0644	0.938	0.909	0.836	0.961	0.974	0.798	0.525	0.25	0.0103
CCCCc1nc2cc(/C=C/C(=O)NO)ccc2n1CCN(CC)CC [SB939]	98.4 ± 1.2	97.63 ± 0.65	96.6 ± 2.1	96.7 ± 1.1	46.1 ± 2.5	2.74 ± 0.067	106 ± 2.5	116 ± 4.8	108.59 ± 0.1	96.3 ± 2	71.42 ± 0.65	35.9 ± 0.61	1.27	0.957	0.868	0.884	0.789	0.608	0.351	0.121	0.00937	1.04	1.11	1.25	1.22	1.03	0.31	0.0114	0.00881	0.00358
CC(C)C[C@H](NC(=O)CNC(=O)c1cc(Cl)ccc1Cl)B(O)O [MLN2238]	100.04 ± 0.065	102.4 ± 0.21	103 ± 0.3	6.24 ± 0.3	1.63 ± 0.11	0.879 ± 0.059	113.5 ± 0.41	107.81 ± 0.071	109 ± 2.2	33.7 ± 7.2	4.42 ± 0.32	1.79 ± 0.047	1.04	1.1	0.991	1.15	0.999	0.243	0.0069	0.000706	0.00111	0.999	1.11	1.04	1.06	0.886	0.00829	0.00329	0.000634	0.000752
COc1cc(Nc2ncc3c(n2)-c2ccc(Cl)cc2C(c2c(F)cccc2OC)=NC3)ccc1C(=O)O [MLN8237]	103 ± 2.5	103.9 ± 0.17	98.7 ± 2.3	93.8 ± 1	91.1 ± 1.4	74.62 ± 0.32	102 ± 2.6	87.64 ± 0.83	95.68 ± 0.57	87.6 ± 0.9	74.6 ± 5.1	69.9 ± 2.5	0.864	0.862	0.767	0.248	0.118	0.0792	0.0576	0.0449	0.0354	0.99	0.824	0.525	0.215	0.146	0.0466	0.0216	0.0132	0.0159
O=C(Nc1c[nH]nc1-c1nc2ccc(CN3CCOCC3)cc2[nH]1)NC1CC1 [AT9283]	73 ± 1.1	89.4 ± 2.2	81.5 ± 2.2	71.4 ± 2.8	31.5 ± 3.9	14.6 ± 0.54	94.6 ± 1.6	103.4 ± 0.37	106 ± 1.6	85.8 ± 4.9	53.12 ± 0.43	15.2 ± 1.2	1.09	0.98	0.952	0.945	0.718	0.031	0.0179	0.00825	0.00249	1.11	1.02	0.973	0.996	0.963	0.0359	0.0512	0.00329	0.00115
Cn1cc(-c2ccc3nnc(Sc4ccc5ncccc5c4)n3n2)cn1 [SGX-523]	102 ± 1.5	96.42 ± 0.71	105 ± 2.4	102.4 ± 0.49	102.2 ± 0.92	97.9 ± 1.9	104 ± 1.6	94.8 ± 6.4	103 ± 2.1	98.3 ± 4.6	103.8 ± 0.28	97.5 ± 4.1	1.13	1.07	0.971	1.13	1.06	0.984	1.01	0.991	0.776	1.09	1.05	1.17	1.23	1.03	1.11	1.19	1.04	0.718
